Data published in ChEMBL document CHEMBL5154774, “Discovery of Novel Celastrol-Imidazole Derivatives with Anticancer Activity In Vitro and In Vivo” (J Med Chem, 2022).

Key:
[1] = system: U2OS; assay: Antiproliferative activity against human U2OS cells assessed as inhibition of cell growth incubated for 48 hrs by MTT assay; type: functional, cell-based
[2] = system: A549; assay: Antiproliferative activity against human A549 cells assessed as inhibition of cell growth incubated for 48 hrs by MTT assay; type: functional, cell-based; conditions: A549, 48 h
[3] = system: MDA-MB-231; assay: Antiproliferative activity against human MDA-MB-231 cells assessed as inhibition of cell growth incubated for 48 hrs by MTT assay; type: functional, cell-based; conditions: MDA-MB-231, 48 h
[4] = system: HCT-116; assay: Antiproliferative activity against human HCT-116 cells assessed as inhibition of cell growth incubated for 48 hrs by MTT assay; type: functional, cell-based; conditions: HCT-116, 48 h
[5] = system: A549; assay: Antiproliferative activity against human A549 cells expressing Hsp90 protein assessed as inhibition of cell growth incubated for 48 hrs by MTT assay; type: functional, cell-based; conditions: A549, 48 h
[6] = system: A549; assay: Antiproliferative activity against human A549 cells expressing Hsp90-Cdc37 protein assessed as inhibition of cell growth incubated for 48 hrs by MTT assay; type: functional, cell-based; conditions: A549, 48 h
[7] = system: A549; assay: Antiproliferative activity against human A549 cells expressing Cdc37 protein assessed as inhibition of cell growth incubated for 48 hrs by MTT assay; type: functional, cell-based; conditions: A549, 48 h
[8] = system: A549; assay: Antitumor activity against human A549 cells xenografted in BALB/c mouse lung tumor model assessed as tumor weight at 1 mg/kg, ip measured every day for 21 days by caliper method; type: functional; conditions: time 21 day
[9] = system: A549; assay: Antitumor activity against human A549 cells xenografted in BALB/c mouse lung tumor model assessed as tumor inhibition rate at 1 mg/kg, ip measured every day for 21 days by caliper method relative to control; type: functional; conditions: A549, 504 h, time 21 day

| Structure (SMILES) | IC50 [1] | IC50 [2] | IC50 [3] | IC50 [4] | IC50 [5] | IC50 [6] | IC50 [7] | Activity [8] | inhibition in vivo at 1 mg/kg [9] |
| --- | --- | --- | --- | --- | --- | --- | --- | --- | --- |
| CC1=C(O)C(=O)C=C2C1=CC=C1[C@@]2(C)CC[C@@]2(C)[C@@H]3C[C@](C)(C(=O)OCCCCn4ccnc4[N+](=O)[O-])CC[C@]3(C)CC[C@]12C | 910 nM | 1060 nM | 1020 nM | 1550 nM | – | – | – | – | – |
| CC1=C(O)C(=O)C=C2C1=CC=C1[C@@]2(C)CC[C@@]2(C)[C@@H]3C[C@](C)(C(=O)OCCCn4ccnc4)CC[C@]3(C)CC[C@]12C | 1650 nM | 1570 nM | 1550 nM | 1090 nM | – | – | – | – | – |
| CC1=C(O)C(=O)C=C2C1=CC=C1[C@@]2(C)CC[C@@]2(C)[C@@H]3C[C@](C)(C(=O)OC/C=C/Cn4cc([N+](=O)[O-])nc4Cl)CC[C@]3(C)CC[C@]12C | 610 nM | 810 nM | 980 nM | 700 nM | – | – | – | – | – |
| CC1=C(O)C(=O)C=C2C1=CC=C1[C@@]2(C)CC[C@@]2(C)[C@@H]3C[C@](C)(C(=O)OCCCCCCn4cc([N+](=O)[O-])nc4Br)CC[C@]3(C)CC[C@]12C | 1460 nM | 1320 nM | 1050 nM | 1930 nM | – | – | – | – | – |
| CC1=C(O)C(=O)C=C2C1=CC=C1[C@@]2(C)CC[C@@]2(C)[C@@H]3C[C@](C)(C(=O)OCCCCn4cc([N+](=O)[O-])nc4Cl)CC[C@]3(C)CC[C@]12C | 620 nM | 790 nM | 1020 nM | 720 nM | – | – | – | – | – |
| CC1=C(O)C(=O)C=C2C1=CC=C1[C@@]2(C)CC[C@@]2(C)[C@@H]3C[C@](C)(C(=O)OCCCCCn4cc([N+](=O)[O-])nc4Br)CC[C@]3(C)CC[C@]12C | 670 nM | 810 nM | 980 nM | 1100 nM | – | – | – | – | – |
| CC1=C(O)C(=O)C=C2C1=CC=C1[C@@]2(C)CC[C@@]2(C)[C@@H]3C[C@](C)(C(=O)OCCCn4cnc(C#N)c4C#N)CC[C@]3(C)CC[C@]12C | 1450 nM | 790 nM | 1450 nM | 720 nM | – | – | – | – | – |
| CC1=C(O)C(=O)C=C2C1=CC=C1[C@@]2(C)CC[C@@]2(C)[C@@H]3C[C@](C)(C(=O)OCCCCn4cnc(C#N)c4C#N)CC[C@]3(C)CC[C@]12C | 1580 nM | 1660 nM | 1670 nM | 1530 nM | – | – | – | – | – |
| CC1=C(O)C(=O)C=C2C1=CC=C1[C@@]2(C)CC[C@@]2(C)[C@@H]3C[C@](C)(C(=O)OCCCCCn4cc([N+](=O)[O-])nc4Cl)CC[C@]3(C)CC[C@]12C | 600 nM | 750 nM | 930 nM | 780 nM | – | – | – | – | – |
| CC1=C(O)C(=O)C=C2C1=CC=C1[C@@]2(C)CC[C@@]2(C)[C@@H]3C[C@](C)(C(=O)OCCCCCn4cnc(C#N)c4C#N)CC[C@]3(C)CC[C@]12C | 1470 nM | 1450 nM | 1570 nM | 790 nM | – | – | – | – | – |
| COC(=O)[C@]12CCC(C)(C)C[C@H]1[C@H]1C(=O)C=C3[C@@]4(C)C=C(C#N)C(=O)C(C)(C)[C@@H]4CC[C@@]3(C)[C@]1(C)CC2 [BARDOXOLONE METHYL] | 740 nM | 630 nM | 560 nM | 840 nM | – | – | – | – | – |
| CC1=C(O)C(=O)C=C2C1=CC=C1[C@@]2(C)CC[C@@]2(C)[C@@H]3C[C@](C)(C(=O)OCCCCCCn4cnc(C#N)c4C#N)CC[C@]3(C)CC[C@]12C | 1730 nM | 1080 nM | 1660 nM | 1160 nM | – | – | – | – | – |
| CC1=C(O)C(=O)C=C2C1=CC=C1[C@@]2(C)CC[C@@]2(C)[C@@H]3C[C@](C)(C(=O)O)CC[C@]3(C)CC[C@]12C [CELASTROL] | 1860 nM | 1680 nM | 1980 nM | 1810 nM | > 100000 nM | > 100000 nM | > 100000 nM | 0.67 g | 52.7% |
| CC1=C(O)C(=O)C=C2C1=CC=C1[C@@]2(C)CC[C@@]2(C)[C@@H]3C[C@](C)(C(=O)OCCCCn4cc([N+](=O)[O-])nc4Br)CC[C@]3(C)CC[C@]12C | 680 nM | 930 nM | 1220 nM | 1850 nM | – | – | – | – | – |
| CC1=C(O)C(=O)C=C2C1=CC=C1[C@@]2(C)CC[C@@]2(C)[C@@H]3C[C@](C)(C(=O)OCCCn4cc([N+](=O)[O-])nc4Br)CC[C@]3(C)CC[C@]12C | 600 nM | 800 nM | 1150 nM | 660 nM | – | – | – | – | – |
| CC1=C(O)C(=O)C=C2C1=CC=C1[C@@]2(C)CC[C@@]2(C)[C@@H]3C[C@](C)(C(=O)OCCCn4ccnc4[N+](=O)[O-])CC[C@]3(C)CC[C@]12C | 800 nM | 750 nM | 900 nM | 1050 nM | – | – | – | – | – |
| CC1=C(O)C(=O)C=C2C1=CC=C1[C@@]2(C)CC[C@@]2(C)[C@@H]3C[C@](C)(C(=O)OC/C=C/Cn4cnc([N+](=O)[O-])c4)CC[C@]3(C)CC[C@]12C | 710 nM | 710 nM | 1030 nM | 640 nM | – | – | – | – | – |
| CC1=C(O)C(=O)C=C2C1=CC=C1[C@@]2(C)CC[C@@]2(C)[C@@H]3C[C@](C)(C(=O)OCCCCCn4ccnc4[N+](=O)[O-])CC[C@]3(C)CC[C@]12C | 680 nM | 710 nM | 980 nM | 600 nM | – | – | – | – | – |

Second part, led by results:

| IC50 [1] | IC50 [2] | IC50 [3] | IC50 [4] | Structure (SMILES) | IC50 [5] | IC50 [6] | IC50 [7] | Activity [8] | inhibition in vivo at 1 mg/kg [9] |
| --- | --- | --- | --- | --- | --- | --- | --- | --- | --- |
| 830 nM | 730 nM | 1210 nM | 640 nM | CC1=C(O)C(=O)C=C2C1=CC=C1[C@@]2(C)CC[C@@]2(C)[C@@H]3C[C@](C)(C(=O)OCCCCCCn4ccnc4[N+](=O)[O-])CC[C@]3(C)CC[C@]12C | – | – | – | – | – |
| 1480 nM | 1090 nM | 1920 nM | 1340 nM | COC(=O)c1cn(CCCCCCOC(=O)[C@]2(C)CC[C@]3(C)CC[C@]4(C)C5=CC=C6C(=CC(=O)C(O)=C6C)[C@]5(C)CC[C@@]4(C)[C@@H]3C2)cn1 | – | – | – | – | – |
| 700 nM | 670 nM | 690 nM | 630 nM | CC1=C(O)C(=O)C=C2C1=CC=C1[C@@]2(C)CC[C@@]2(C)[C@@H]3C[C@](C)(C(=O)OCCCn4cnc([N+](=O)[O-])c4)CC[C@]3(C)CC[C@]12C | – | – | – | – | – |
| 1350 nM | 740 nM | 1650 nM | 690 nM | COC(=O)c1cn(CCCOC(=O)[C@]2(C)CC[C@]3(C)CC[C@]4(C)C5=CC=C6C(=CC(=O)C(O)=C6C)[C@]5(C)CC[C@@]4(C)[C@@H]3C2)cn1 | – | – | – | – | – |
| 880 nM | 780 nM | 1550 nM | 670 nM | COC(=O)c1cn(CCCCCOC(=O)[C@]2(C)CC[C@]3(C)CC[C@]4(C)C5=CC=C6C(=CC(=O)C(O)=C6C)[C@]5(C)CC[C@@]4(C)[C@@H]3C2)cn1 | – | – | – | – | – |
| 880 nM | 790 nM | 950 nM | 630 nM | CC1=C(O)C(=O)C=C2C1=CC=C1[C@@]2(C)CC[C@@]2(C)[C@@H]3C[C@](C)(C(=O)OCCCCCCn4cnc([N+](=O)[O-])c4)CC[C@]3(C)CC[C@]12C | – | – | – | – | – |
| 600 nM | 710 nM | 600 nM | 610 nM | CC1=C(O)C(=O)C=C2C1=CC=C1[C@@]2(C)CC[C@@]2(C)[C@@H]3C[C@](C)(C(=O)OCCCCCn4cnc([N+](=O)[O-])c4)CC[C@]3(C)CC[C@]12C | – | – | – | – | – |
| 1520 nM | 1040 nM | 1870 nM | 950 nM | COC(=O)c1cn(CCCCOC(=O)[C@]2(C)CC[C@]3(C)CC[C@]4(C)C5=CC=C6C(=CC(=O)C(O)=C6C)[C@]5(C)CC[C@@]4(C)[C@@H]3C2)cn1 | – | – | – | – | – |
| 910 nM | 900 nM | 990 nM | 1120 nM | CC1=C(O)C(=O)C=C2C1=CC=C1[C@@]2(C)CC[C@@]2(C)[C@@H]3C[C@](C)(C(=O)OCCCCCCn4cc([N+](=O)[O-])nc4Cl)CC[C@]3(C)CC[C@]12C | – | – | – | – | – |
| 1450 nM | 1970 nM | 1550 nM | 1290 nM | CC1=C(O)C(=O)C=C2C1=CC=C1[C@@]2(C)CC[C@@]2(C)[C@@H]3C[C@](C)(C(=O)OCCCn4cnc(C)c4)CC[C@]3(C)CC[C@]12C | – | – | – | – | – |
| 890 nM | 770 nM | 890 nM | 700 nM | CC1=C(O)C(=O)C=C2C1=CC=C1[C@@]2(C)CC[C@@]2(C)[C@@H]3C[C@](C)(C(=O)OCCCCn4cnc([N+](=O)[O-])c4)CC[C@]3(C)CC[C@]12C | – | – | – | – | – |
